Counter-ions that a name gives are not always drawn.
How the values were obtained:
[1] = during tablet manufacture and storage
From the text: The chiral purity might be determined by analyzing a sample of dexpramipexole, or a pharmaceutically acceptable salt thereof, by high performance liquid chromatography (HPLC).

dopamine receptors = conditions: cited from earlier work
eosinophils = conditions: human blood and tissues; cited from earlier work

Row | SMILES | chiral purity over time [1] | affinity for dopamine receptors compared to pramipexole (dopamine receptors) | effect on eosinophil counts (eosinophils)
1 | CCCN[C@@H]1CCc2nc(N)sc2C1 [dexpramipexole dihydrochloride monohydrate] | did not change over time |  | 
2 | CCCN[C@@H]1CCc2nc(N)sc2C1 [dexpramipexole, (6R)-2-amino-4,5,6,7-tetrahydro-6-(propylamino)benzothiazole] |  | greatly reduced | selectively and significantly lower eosinophil counts

Reference: patent US20250213489A1, “OSMOTIC TABLETS OF DEXPRAMIPEXOLE AND METHODS OF MANUFACTURING AND USE THEREOF” (Areteia Therapeutics, Inc., priority 2023, published 2025)
